Entries after “also recorded” stand apart in the source; their conditions may differ.
Tested on: cytokinetic ring
Test: Cytokinetic ring closure of fission yeast in egg-cup wells, observed by fluorescence microscopy (rlc1-mCherry)
Format: cell-based, Schizosaccharomyces pombe
Conditions: latrunculin A 2 μM; FIG. 5B
Protocol: Here, they illustrate results with the myosin light chain encoded by rcl1 gene fused to mCherry.
The inventors incubated the cells with latrunculin A (2 μM), a drug known to bind monomeric actin and therefore preventing its polymerisation (Ayscough, 1998).
Standard methods were used for cell growth (Moreno et al., 1991). Briefly, cells were growing exponentially in EMM4S (Moreno et al., 1991), and experiments were conducted using the same medium in the chamber.
S. pombe strains successfully used in this study were the following: • JM 207 h+ rlc1 mcherry::natR ura- leu- ade-, J. Moseley • JW 1110 h+ kanMX6-Pmyo2-mYFP-myo2 ade6-M210 leu1-32 ura4-D18, J.-Q. Wu (Wu and Pollard, 2005) • PPG 5054, h+ leu1-32 ura4-D18 pax::KanMX6 leu1+::GFPpax+, Pilar Perez Lab (Pinar et al., 2008). • JW 977 h+ cdc15-mYFP-kanMX6 ade6-M210 leu1-32 ura4-D18, J.-Q. Wu (Wu and Pollard, 2005) • 519 h− bgs1Δ::ura4^+ Pbgs1^+::GFP-bgs1^+:leu1^+ leu1-32 ura4-Δ18 his3-Δ1, Pilar Perez (Cortes et al., 2002)
Cells were grown in exponential phase at 32° C. At about 0.5 optical density, the EMM4S medium was removed twice by centrifugation at 1000 g for 2 min followed by cells resuspension in a EMM-N medium (Moreno et al., 1991): cells were nitrogen starved at 32° C. for 5 hours. Cells were then pelleted with a 2 min centrifugation at 1000 g and they were resuspended in EMM4S. The egg cup surface (face up) was carefully placed on the top of a home-made plastic holder deposited in a 50 ml tube (adapted from the set-up used by (Allen et al., 2007)); 13 ml of EMM4S was poured in the tube. Cells were exposed to sonication 30 s (Branson 200, Ultrasonic Cleaner) to separate aggregated cells, and 1 ml of cell suspension was added to the 50 ml tube. Cells were then centrifuged at 500 g for 2 mn on the egg-cup surface resting on the special plastic holder. The egg cup surface was carefully removed from the holder and it was inserted in a home-made chamber (see FIG. 2D). The sample preparation was achieved by screwing a top metal piece onto the surface holder. […]

C/C1=C/C(=O)O[C@@H]2C[C@@H](CC[C@H](C)/C=C\C=C\CC1)O[C@@](O)([C@@H]1CSC(=O)N1)C2 [latrunculin A]
closure of the cytokinetic ring: the closure was stopped
cytokinetic ring integrity: the ring disassembled, and this led to the clustering of myosin into discrete patches; also recorded: disrupts the ring

Source: patent US9304125B2, “Devices and methods for observing the cell division” (CENTRE NATIONAL DE LA RECHERCHE SCIENTIFIQUE, priority 2009, dated 2016)
